For one assay, the target named is T1, ER (Homo sapiens, UniProt P03372).
T1 construct: host or cells: T47D and MCF7 human breast cancer cells
T1 sequence (P03372 1-595): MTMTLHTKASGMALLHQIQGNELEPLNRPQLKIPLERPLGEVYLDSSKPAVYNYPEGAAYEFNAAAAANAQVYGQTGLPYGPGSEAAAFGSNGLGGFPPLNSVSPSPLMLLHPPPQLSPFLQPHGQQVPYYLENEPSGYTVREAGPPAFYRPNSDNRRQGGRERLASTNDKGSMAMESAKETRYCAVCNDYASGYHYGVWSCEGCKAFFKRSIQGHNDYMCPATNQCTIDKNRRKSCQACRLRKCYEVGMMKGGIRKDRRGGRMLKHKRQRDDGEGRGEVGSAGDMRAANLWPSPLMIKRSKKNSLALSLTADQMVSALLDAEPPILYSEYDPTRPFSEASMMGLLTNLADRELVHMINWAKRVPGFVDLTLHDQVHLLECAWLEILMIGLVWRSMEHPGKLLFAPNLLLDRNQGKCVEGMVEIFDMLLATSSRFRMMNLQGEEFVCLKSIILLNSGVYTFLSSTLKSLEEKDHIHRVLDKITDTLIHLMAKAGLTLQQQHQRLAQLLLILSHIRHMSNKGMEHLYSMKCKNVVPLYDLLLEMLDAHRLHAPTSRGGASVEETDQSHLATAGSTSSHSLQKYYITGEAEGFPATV
Put plainly: ER degradation activity, in-cell western blot analysis in T47D cells. Format: cell-based. The following applies: 16 hours, Table A does not say which cell line (T47D or MCF7), read-out: Potency (DC50). In a few lines: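 In-cell western, T47D; compounds 16 h, 0.5% DMSO final; anti-rabbit-680/anti-mouse-800 secondaries, 1 h RT, dark; read on CLX imager. ER % vs untreated/DMSO wells (100%).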
For orientation: DC50 means the midpoint of the concentration-degradation curve. For `C[C@@H]1CC2(CCN(c3ccc([C@@H]4c5ccc(O)cc5CC[C@@H]4c4ccc(F)cc4)cc3)CC2)CN1CC(=O)N1Cc2cc3c(cc2C1)C(=O)N(C1CCC(=O)NC1=O)C3=O` (mixture of isomers) [E 146, Rac-2-(2,6-dioxopiperidin-3-yl)-6-(2-((R)-8-(4-((1R,2S)-2-(4-fluorophenyl)-6-hydroxy-1,2,3,4-tetrahydronaphthalen-1-yl)phenyl)-3-methyl-2,8-diazaspiro[4.5]decan-2-yl)acetyl)-6,7-dihydropyrrolo[3,4-f]isoindole-1,3(2H,5H)-dione], the DC50 is over 0.1 µM.

On to `C[C@H]1Cc2c([nH]c3ccccc23)[C@H](c2c(F)cc(N3CC4(CCCN(C(=O)CN5Cc6cc7c(cc6C5)C(=O)N(C5CCC(=O)NC5=O)C7=O)C4)C3)cc2F)N1CC(F)F` (stereo in doubt) [E 80, 6-(2-(2-(4-((1S,3S)-2-(2,2-difluoroethyl)-3-methyl-2,3,4,9-tetrahydro-1H-pyrido[3,4-b]indol-1-yl)-3,5-difluorophenyl)-2,6-diazaspiro[3.5]nonan-6-yl)-2-oxoethyl)-2-(2,6-dioxopiperidin-3-yl)-6,7-dihydropyrrolo[3,4-f]isoindole-1,3(2H,5H)-dione], for which the DC50 lay within 0.01 to 0.1 µM.

Turning to `O=C1CCC(N2C(=O)c3cc4c(cc3C2=O)CN(CCN2CCC3(CC2)CN(c2ccc([C@@H]5c6ccc(O)cc6CC[C@@H]5c5ccccc5)cc2)C3)C4)C(=O)N1` (mixture of isomers) [E 266, rac-2-(2,6-dioxopiperidin-3-yl)-6-(2-(2-(4-((1R,2S)-6-hydroxy-2-phenyl-1,2,3,4-tetrahydronaphthalen-1-yl)phenyl)-2,7-diazaspiro[3.5]nonan-7-yl)ethyl)-6,7-dihydropyrrolo[3,4-f]isoindole-1,3(2H,5H)-dione], the DC50 is 0.01 to 0.1 µM.

Regarding `O=C1CCC(N2C(=O)c3cc4c(cc3C2=O)CN(C(=O)[C@H]2CC[C@@H](N3CC(Oc5ccc([C@H]6c7ccc(O)cc7CC[C@H]6c6ccccc6)cc5)C3)CC2)C4)C(=O)N1` (stereo partly drawn) [E 389, 2-(2,6-dioxopiperidin-3-yl)-6-((1R,4s)-4-(3-(4-((1S,2R)-6-hydroxy-2-phenyl-1,2,3,4-tetrahydronaphthalen-1-yl)phenoxy)azetidin-1-yl)cyclohexane-1-carbonyl)-6,7-dihydropyrrolo[3,4-f]isoindole-1,3(2H,5H)-dione], the DC50 is over 0.1 µM.

`O=C1CCC(N2C(=O)c3cc4c(cc3C2=O)CN(CC(=O)N2CCC3(CC2)CCN(c2ccc([C@@H]5c6ccc(O)cc6CC[C@@H]5C5CCC(F)(F)CC5)cc2)CC3)C4)C(=O)N1` (mixture of isomers) [E 178, Rac-6-(2-(9-(4-((1R,2R)-2-(4,4-difluorocyclohexyl)-6-hydroxy-1,2,3,4-tetrahydronaphthalen-1-yl)phenyl)-3,9-diazaspiro[5.5]undecan-3-yl)-2-oxoethyl)-2-(2,6-dioxopiperidin-3-yl)-6,7-dihydropyrrolo[3,4-f]isoindole-1,3(2H,5H)-dione]: the DC50 lay within 0.01 to 0.1 µM.

As to `C[C@@H]1Cc2c([nH]c3ccccc23)[C@@H](c2c(F)cc(N3CCC(CN4CCC(N5Cc6cc7c(cc6C5)C(=O)N(C5CCC(=O)NC5=O)C7=O)CC4)CC3)cc2F)N1CC(F)F` (stereo partly drawn) [E 51, 6-(1-((1-(4-((1R,3R)-2-(2,2-difluoroethyl)-3-methyl-2,3,4,9-tetrahydro-1H-pyrido[3,4-b]indol-1-yl)-3,5-difluorophenyl)piperidin-4-yl)methyl)piperidin-4-yl)-2-(2,6-dioxopiperidin-3-yl)-6,7-dihydropyrrolo[3,4-f]isoindole-1,3(2H,5H)-dione], the DC50 lay within 0.01 to 0.1 µM.

`O=C1CCC(N2C(=O)c3cc4c(cc3C2=O)CN(C[C@H]2CC[C@H](N3CC(Nc5ccc([C@@H]6c7ccc(O)cc7CC[C@@H]6c6ccccc6)cc5)C3)CC2)C4)C(=O)N1` (stereo partly drawn) [E 374, 2-(2,6-dioxopiperidin-3-yl)-6-(((1R,4r)-4-(3-((4-((1R,2S)-6-hydroxy-2-phenyl-1,2,3,4-tetrahydronaphthalen-1-yl)phenyl)amino)azetidin-1-yl)cyclohexyl)methyl)-6,7-dihydropyrrolo[3,4-f]isoindole-1,3(2H,5H)-dione]: the DC50 was over 0.1 µM.

Consider `C[C@@H]1Cc2c([nH]c3ccccc23)[C@@H](c2c(F)cc(N3CCC(CN4CC5(CC(N6Cc7cc8c(cc7C6)C(=O)N(C6CCC(=O)NC6=O)C8=O)C5)C4)CC3)cc2F)N1CC(F)F` (stereo partly drawn) [E 131, 6-(2-((1-(4-((1R,3R)-2-(2,2-difluoroethyl)-3-methyl-2,3,4,9-tetrahydro-1H-pyrido[3,4-b]indol-1-yl)-3,5-difluorophenyl)piperidin-4-yl)methyl)-2-azaspiro[3.3]heptan-6-yl)-2-(2,6-dioxopiperidin-3-yl)-6,7-dihydropyrrolo[3,4-f]isoindole-1,3(2H,5H)-dione], for which the DC50 was under 0.01 µM.

Take `C[C@@H]1Cc2c([nH]c3ccccc23)[C@@H](c2ccc(C3CCC(C(=O)N4CCC(N5Cc6cc7c(cc6C5)C(=O)N(C5CCC(=O)NC5=O)C7=O)CC4)CC3)cc2F)N1CC(F)F` (stereo partly drawn) [E 312, 6-(1-(4-(4-((1R,3R)-2-(2,2-difluoroethyl)-3-methyl-2,3,4,9-tetrahydro-1H-pyrido[3,4-b]indol-1-yl)-3-fluorophenyl)cyclohexane-1-carbonyl)piperidin-4-yl)-2-(2,6-dioxopiperidin-3-yl)-6,7-dihydropyrrolo[3,4-f]isoindole-1,3(2H,5H)-dione]: the DC50 lay in the range of 0.01 to 0.1 µM.

`O=C1CCC(N2C(=O)c3cc4c(cc3C2=O)CN(C(=O)C2CCN(CC3CCN(c5ccc([C@@H]6c7ccc(O)cc7CC[C@@H]6c6ccccc6)cc5)CC3)CC2)C4)C(=O)N1` (stereo partly drawn) [E 205, 2-(2,6-dioxopiperidin-3-yl)-6-(1-((1-(4-((1R,2S)-6-hydroxy-2-phenyl-1,2,3,4-tetrahydronaphthalen-1-yl)phenyl)piperidin-4-yl)methyl)piperidine-4-carbonyl)-6,7-dihydropyrrolo[3,4-f]isoindole-1,3(2H,5H)-dione]: the DC50 was over 0.1 µM.

For `C[C@@H]1Cc2cc(O)ccc2[C@@H](c2c(F)cc(N3CCC4(CC3)CN(CC(=O)N3Cc5cc6c(cc5C3)C(=O)N(C3CCC(=O)NC3=O)C6)C4)cc2F)N1CC(F)F` (some centres unmarked) [E 39], the DC50 is under 0.01 µM.

`C[C@@H]1Cc2cc(O)ccc2[C@@H](c2c(F)cc(N3CC4(CCN(CC(=O)N5Cc6cc7c(cc6C5)C(=O)N(C5CCC(=O)NC5=O)C7)CC4)C3)cc2F)N1CC(C)(F)F` (stereo partly drawn) [E 26, 3-(6-(2-(2-(4-((1S,3R)-2-(2,2-difluoropropyl)-6-hydroxy-3-methyl-1,2,3,4-tetrahydroisoquinolin-1-yl)-3,5-difluorophenyl)-2,7-diazaspiro[3.5]nonan-7-yl)acetyl)-1-oxo-3,5,6,7-tetrahydropyrrolo[3,4-f]isoindol-2(1H)-yl)piperidine-2,6-dione]: the DC50 was over 0.1 µM.

Consider `O=C1CCC(N2C(=O)c3cc4c(cc3C2=O)CN(C2CCC(NC3CCN(c5ccc([C@@H]6c7ccc(O)cc7CC[C@@H]6c6ccccc6)cc5)CC3)CC2)C4)C(=O)N1` (stereo partly drawn) [E 303, 2-(2,6-dioxopiperidin-3-yl)-6-(4-((1-(4-((1R,2S)-6-hydroxy-2-phenyl-1,2,3,4-tetrahydronaphthalen-1-yl)phenyl)piperidin-4-yl)amino)cyclohexyl)-6,7-dihydropyrrolo[3,4-f]isoindole-1,3(2H,5H)-dione], for which the 50% degradation concentration (DC50) is over 0.1 µM.

Take `C[C@@H]1Cc2cc(O)ccc2[C@@H](c2c(F)cc(N3CC4(CCN(CC(=O)N5Cc6cc7c(cc6C5)C(=O)N(C5CCC(=O)NC5=O)C7)C4)C3)cc2F)N1CC(F)F` (stereo partly drawn) [E 40, 3-(6-(2-(2-(4-((1S,3R)-2-(2,2-difluoroethyl)-6-hydroxy-3-methyl-1,2,3,4-tetrahydroisoquinolin-1-yl)-3,5-difluorophenyl)-2,6-diazaspiro[3.4]octan-6-yl)acetyl)-1-oxo-3,5,6,7-tetrahydropyrrolo[3,4-f]isoindol-2(1H)-yl)piperidine-2,6-dione]: the DC50 was under 0.01 µM.

As to `O=C1CCC(N2C(=O)c3cc4c(cc3C2=O)CN(C2CCN(C(=O)C3CCN(c5ccc([C@@H]6c7ccc(O)cc7CC[C@@H]6c6ccccc6)cc5)CC3)CC2)C4)C(=O)N1` (stereo partly drawn) [E 240, 2-(2,6-dioxopiperidin-3-yl)-6-(1-(1-(4-((1R,2S)-6-hydroxy-2-phenyl-1,2,3,4-tetrahydronaphthalen-1-yl)phenyl)piperidine-4-carbonyl)piperidin-4-yl)-6,7-dihydropyrrolo[3,4-f]isoindole-1,3(2H,5H)-dione], the DC50 was over 0.1 µM.

The assay is the same for the next values; noted with them: compounds 16 hours, Table A does not say whether T47D or MCF7, read-out: Potency (DC50).
With `O=C1CCC(N2Cc3cc4c(cc3C2=O)CN(C(=O)[C@H]2CC[C@H](CN3CC(Oc5ccc([C@@H]6c7ccc(O)cc7CC[C@@H]6c6ccccc6)cc5)C3)CC2)C4)C(=O)N1` (mixture of isomers) [E 491], the DC50 is 0.01 to 0.1 µM.

As to `C[C@@H]1Cc2cc(O)ccc2[C@@H](c2c(F)cc(C3CCC(C(=O)N4CCC(N5Cc6cc7c(cc6C5)C(=O)N(C5CCC(=O)NC5=O)C7=O)CC4)CC3)cc2F)N1CC(F)F` (stereo partly drawn) [E 487, 6-(1-(4-(4-((1S,3R)-2-(2,2-difluoroethyl)-6-hydroxy-3-methyl-1,2,3,4-tetrahydroisoquinolin-1-yl)-3,5-difluorophenyl)cyclohexane-1-carbonyl)piperidin-4-yl)-2-(2,6-dioxopiperidin-3-yl)-6,7-dihydropyrrolo[3,4-f]isoindole-1,3(2H,5H)-dione], the DC50 fell in the range of 0.01 to 0.1 µM.

The record behind these values is patent US20240190880A1 (THE REGENTS OF THE UNIVERSITY OF MICHIGAN, priority 2021, published 2024).
